# In paper PMC11345829, “Discovery of Potent Isoquinolinequinone N-Oxides to Overcome Cancer Multidrug Resistance” (Journal of Medicinal Chemistry, 2024):
# Read-outs that look alike come from different tables or passages of the source.
# Tests used:
# [1] = system: OVCAR-8; assay: NCI60 five-dose GI50; format: cell-based; conditions: Homo sapiens, ovarian
# Source text: (§1) The concentration−response curve generated enables the determination of three criteria, GI50 (drug concentration at which 50% of cell growth is inhibited), total growth inhibition (TGI) and LC50 (drug concentration at which 50% of tumor cells are killed) which can be used to compare effectiveness against any compound tested in the screen since its inception.
# (§2) S2.1 NCI Screening Assay Experimental details
# (§3) NCI Screening Assay Experimental: Cancer cell growth assays (NCI60 screening) 5,6 One-dose study: Tested compounds were initially solubilised in DMSO, diluted into RPMI 1640 and 5% fetal bovine serum/L-glutamine, and added to 96-well plates containing cell lines previously cultured for 24 h. After 48 h incubation, the media were removed, and the cells were fixed and stained with sulforhodamine B to determine overall percent growth/ total protein content. Unbound dye was removed with five washes of 1% acetic acid, and the plates were allowed to air dry. The dye was then resolubilised in Tris buffer, and the colorimetric absorbance was measured (515 nm). […]
# (§4) Five-dose study: Serial 5 × 10-fold dilution from an initial DMSO stock solution was performed, prior to incubation at each individual concentration (10 nM, 100 nM, 1 μM, 10 μM and 100 μM). Using seven absorbance measurements (time zero (Tz), control growth (C), and test growth in the presence of drug at the five concentration levels (Ti)), the percentage growth was calculated at each of the drug concentrations levels. Percentage growth inhibition was calculated as: [(Ti − Tz)/(C − Tz)] × 100 for concentrations for which Ti ≥ Tz, [(Ti − Tz)/Tz] × 100 for concentrations for which Ti < Tz. Three dose response parameters were calculated for each experimental agent. […]
# (§5) was calculated from [(Ti − Tz)/(C − Tz)] × 100 = 50, which is the drug concentration resulting in a 50% reduction in the net protein increase (as measured by sulforhodamine B staining) in control cells during the drug incubation. The drug concentration resulting in total growth inhibition (TGI) was calculated from Ti = Tz. The LC50 (concentration of drug resulting in a 50% reduction in the measured protein at the end of the drug treatment as compared to that at the beginning) indicating a net loss of cells following treatment was calculated from [(Ti − Tz)/Tz] × 100 = −50. Values were calculated for each of these three parameters if the level of activity was reached; however, if the effect was not reached or was exceeded, the value for that parameter was expressed as greater or less than the maximum or minimum concentration tested.
# [2] = system: NCI60 tumor cell line panel; assay: NCI60 one-dose screen (10 μM), mean growth; format: cell-based, human; conditions: for activity at 10 µM: Homo sapiens; for activity at 10 µM / mean growth (%, 10 μM): 48 h, one dose 10 μM, mean cell growth of 60 tumor cell lines
# Description: as §2
# as §3, with “nm). Growth inhibition was measured relative to the response generated from proliferating cells cultured under identical conditions for 48 h.” for “nm).”
# [3] = system: NCI60 tumor cell line panel; assay: NCI60 five-dose screen, mean over panel; format: cell-based, human; conditions: five dose
# Source text: as §1, §2
# as §3, with “nm). Growth inhibition was measured relative to the response generated from proliferating cells cultured under identical conditions for 48 h. Data from one-dose experiments pertains to the percentage growth at” for “nm).”
# as §4, §5
# [4] = system: OVCAR-3; assay: NCI60 five-dose GI50; format: cell-based; conditions: Homo sapiens, ovarian
# Source text: as §1, §2
# as §3, with “nm). Growth inhibition was measured relative to the response generated from proliferating cells cultured under identical conditions for 48 h. Data from one-dose experiments pertains to the percentage growth at” for “nm).”
# as §4, §5
# [5] = system: COLO-205; assay: NCI60 five-dose GI50; format: cell-based; conditions: Homo sapiens, colon
# Source text: as §1, §2
# as §3, with “nm). Growth inhibition was measured relative to the response generated from proliferating cells cultured under identical conditions for 48 h. Data from one-dose experiments pertains to the percentage growth at” for “nm).”
# as §4, §5
# [6] = system: LOX-IMVI; assay: NCI60 five-dose GI50; format: cell-based; conditions: Homo sapiens, melanoma
# Source text: as §1, §2
# as §3, with “nm). Growth inhibition was measured relative to the response generated from proliferating cells cultured under identical conditions for 48 h. Data from one-dose experiments pertains to the percentage growth at” for “nm).”
# as §4, §5
# [7] = system: UACC-62; assay: NCI60 five-dose GI50; format: cell-based; conditions: Homo sapiens, melanoma
# Source text: as §1, §2
# as §3, with “nm). Growth inhibition was measured relative to the response generated from proliferating cells cultured under identical conditions for 48 h. Data from one-dose experiments pertains to the percentage growth at” for “nm).”
# as §4, §5
# [8] = system: K-562; assay: NCI60 five-dose GI50; format: cell-based; conditions: Homo sapiens, K562, five dose
# Source text: as §1, §2
# as §3, with “nm). Growth inhibition was measured relative to the response generated from proliferating cells cultured under identical conditions for 48 h. Data from one-dose experiments pertains to the percentage growth at” for “nm).”
# as §4, §5
# [9] = system: MCF-7; assay: NCI60 five-dose GI50; format: cell-based; conditions: Homo sapiens, MCF7, breast
# Source text: as §1, §2
# as §3, with “nm). Growth inhibition was measured relative to the response generated from proliferating cells cultured under identical conditions for 48 h. Data from one-dose experiments pertains to the percentage growth at” for “nm).”
# as §4, §5
# [10] = system: NCI-ADR/RES; assay: NCI60 five-dose GI50; format: cell-based; conditions: Homo sapiens, MDR ovarian
# Source text: as §1, §2
# as §3, with “nm). Growth inhibition was measured relative to the response generated from proliferating cells cultured under identical conditions for 48 h. Data from one-dose experiments pertains to the percentage growth at” for “nm).”
# as §4, §5
# [11] = Homo sapiens, across 57-60 cell lines (number given per compound), read-out: Mean of GI50 as Log 10 Concentration (SD) (converted)
# [12] = mean over 52 human tumor cell lines common to all analogues, read-out: mean GI50
SMILES,GI50 [1] [µM],activity at 10 µM [2] [%],"GI50 [3, 11] [µM]","GI50 [3, 12] [µM]",GI50 [4] [µM],GI50 [5] [µM],GI50 [6] [µM],GI50 [7] [µM],GI50 ([8]; leukemia) [µM],GI50 [9] [µM],GI50 [10] [µM],"mean growth (%, 10 μM) [2] [%]",GI50 [8] [µM],one-dose screen outcome ([2]; 10 μM)
COC(=O)c1c2c(c(C)[n+]([O-])c1C)C(=O)C(NCc1ccc(Br)cc1)=CC2=O [Compound 14],1.83,18,1.64,1.8,0.301,0.659,1.67,1.17,2.38,1.33,1.97,,,
COC(=O)c1c2c(c(C)[n+]([O-])c1C)C(=O)C=C(NCc1ccc(OC)cc1)C2=O [Compound 7],0.452,-34,1.53,0.9,0.284,0.325,0.408,0.374,0.491,0.3,0.419,-34,,
COC(=O)c1c2c(c(C)[n+]([O-])c1C)C(=O)C(NCc1cccc(Cl)c1)=CC2=O [Compound 12],1.52,12,1.34,1.48,0.322,0.388,1.76,1.24,2.17,1.1,1.64,,,
COC(=O)c1c2c(c(C)[n+]([O-])c1C)C(=O)C=C(NCc1ccc(F)c(F)c1)C2=O [Compound 17],0.299,-49,0.421,0.58,0.258,0.26,0.064,0.068,0.113,0.29,0.345,-49,< 0.15,
COC(=O)c1c2c(c(C)[n+]([O-])c1C)C(=O)C=C(NCc1cccc(OC)c1)C2=O [Compound 9],0.339,-52,0.607,0.74,0.259,0.252,0.302,0.306,0.416,0.286,0.441,-52,,
COC(=O)c1c2c(c(C)[n+]([O-])c1C)C(=O)C=C(NCc1ccc(F)c(Cl)c1)C2=O [Compound 19],0.249,-47,0.29,0.56,0.199,0.211,0.031,0.041,0.051,0.229,0.321,-47,< 0.15,
COC(=O)c1c2c(c(C)[n+]([O-])c1C)C(=O)C(NCc1ccc(OC)cc1)=CC2=O [Compound 6],2.78,19,2.04,2.12,0.315,0.839,2.41,1.72,2.67,1.41,2.42,,,
COC(=O)c1c2c(c(C)[n+]([O-])c1C)C(=O)C(NCc1ccc(F)c(Cl)c1)=CC2=O [Compound 18],2.38,4,1.8,1.51,0.306,0.588,2.34,1.38,2.67,1.32,2.08,,,
COC(=O)c1c2c(c(C)[n+]([O-])c1C)C(=O)C=C(NCc1ccc(Cl)cc1)C2=O [Compound 11],0.292,-32,0.412,0.55,0.208,0.238,0.039,0.055,0.058,0.267,0.267,-32,< 0.15,
COC(=O)c1c2c(c(C)[n+]([O-])c1C)C(=O)C=C(NCc1ccc(Br)cc1)C2=O [Compound 15],0.465,-50,0.515,0.78,0.273,0.313,0.084,0.046,0.047,0.289,0.439,-50,< 0.15,
COC(=O)c1c2c(c(C)[n+]([O-])c1C)C(=O)C(NCc1cccc(OC)c1)=CC2=O [Compound 8],2.52,23,2.21,2.29,0.512,1.1,2.36,1.7,2.98,1.65,2.36,,,
COC(=O)c1c2c(c(C)[n+]([O-])c1C)C(=O)C(NCc1ccc(Cl)cc1)=CC2=O [Compound 10],,57,,,,,,,,,,,,did not achieve sufficient growth inhibition
COC(=O)c1c2c(c(C)[n+]([O-])c1C)C(=O)C=C(NCc1cccc(Cl)c1)C2=O [Compound 13],0.297,-42,0.405,0.62,0.243,0.263,0.094,0.144,0.109,0.27,0.352,-42,< 0.15,
COC(=O)c1c2c(c(C)[n+]([O-])c1C)C(=O)C(NCc1ccc(F)c(F)c1)=CC2=O [Compound 16],1.96,11,1.78,1.91,0.333,0.673,1.98,1.53,2.23,1.48,2.3,,,
